Measurements as given in patent publication US20250197420A1, “MACROCYCLIC COMPOUNDS, COMPOSITIONS, AND METHODS OF USING THEREOF” (Sionna Therapeutics Inc., priority 2022, published 2025).

Tests used:
[1] = biological target: T1, Purified recombinant NBD1 (Homo sapiens, UniProt P13569); assay: Aggregation analysis using differential static light scattering (DSLS): thermal stability of NBD1; assay type: binding; details: NBD1 0.2 mg/ml; Tagg of compound well minus average Tagg of DMSO control wells
T1 construct: Purified recombinant NBD1 was produced using previously described methods; made in house
T1 sequence (P13569 423-646 limits assumed): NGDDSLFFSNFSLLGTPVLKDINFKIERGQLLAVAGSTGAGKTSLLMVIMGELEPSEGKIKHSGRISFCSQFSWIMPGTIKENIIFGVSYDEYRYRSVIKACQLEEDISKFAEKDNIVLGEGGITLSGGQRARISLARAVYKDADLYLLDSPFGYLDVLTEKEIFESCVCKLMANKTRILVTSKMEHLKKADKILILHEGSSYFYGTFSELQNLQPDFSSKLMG
How it was run: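 Recombinant NBD1 at 0.2 mg/ml in Tris/NaCl/MgCl2 buffer with 2 mM ATP, 2 mM DTT, 1% glycerol, pH 7.6, was incubated with compound and heated at 1 °C/min to 70 °C while static light scattering was monitored. Tagg was taken from the curve inflection point and reported as ΔTagg relative to DMSO controls.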

[2] = test system: Primary human bronchial epithelial cells from a ΔF508 homozygous CF donor (CF-HBE cells); assay: TECC24 recording of CFTR-mediated transepithelial chloride transport, AUC fold over benchmark VX-809 @10 μM; assay type: cell-based; details: 48 hours incubation, AUC of forskolin-stimulated IEQ
How it was run: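 CF-HBE cells on inserts were treated with compound for 48 h at 36.5 °C, then recorded in current-clamp with benzamil 10 μM, forskolin 10 μM, and finally CFTR inhibitor-172 20 μM in pH 7.4 Hepes saline. Equivalent Cl− current AUC between forskolin and inhibitor addition is expressed as a ratio to VX-809 AUC: A <3, B 3–6, C 6–20.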

Structure (SMILES)	DSLS (ΔTagg) [1]	TECC (test agent AUC divided by VX-809 AUC) [2]
CN1CCCc2c(c(F)cc3[nH]ccc23)Oc2ccc(F)c(c2)-c2ncc([nH]2)C(C)(c2cccc(CCC(=O)O)c2)CCCOC1=O (centres unmarked) [Compound 84, 3-[3-(23,29-Difluoro-6,12-dimethyl-11-oxo-10,25-dioxa-3,12,20,31-tetrazapentacyclo[24.3.1.12,5.016,24.017,21]hentriaconta-1(30),2,4,16(24),17(21),18,22,26,28-nonaen-6-yl)phenyl]propanoic acid]	C (a value greater than 10 °C and less than or equal to 25 °C is marked “C”)	B (a value between 3 and 6 is marked “B”)
O=C(O)CCc1cccc(C2CCCCCNC(=O)OCc3c(c(F)cc4[nH]ccc34)Oc3ccc(F)c(c3)-c3ncc2[nH]3)c1F (centres unmarked) [Compound 85, 3-[3-(23,29-Difluoro-13-oxo-14,25-dioxa-3,12,20,31-tetrazapentacyclo[24.3.1.12,5.016,24.017,21]hentriaconta-1(30),2,4,16,18,21,23,26,28-nonaen-6-yl)-2-fluoro-phenyl]propanoic acid]	C (a value greater than 10 °C and less than or equal to 25 °C is marked “C”)	B (a value between 3 and 6 is marked “B”)
CC1(c2cccc(CCC(=O)O)c2)CCCCNC(=O)OCCc2c(c(F)cc3[nH]ccc23)Oc2ccc(F)c(c2)-c2ncc1[nH]2 (centres unmarked) [Compound 86, 3-[3-(23,29-Difluoro-6-methyl-12-oxo-13,25-dioxa-3,11,20,31-tetrazapentacyclo[24.3.1.12,5.016,24.017,21]hentriaconta-1(30),2,4,16(24),17(21),18,22,26,28-nonaen-6-yl)phenyl]propanoic acid]	C (a value greater than 10 °C and less than or equal to 25 °C is marked “C”)	C (a value between 6 and 20 is marked “C”)
CC1CCC(C)(c2cccc(CCC(=O)O)c2)c2cnc([nH]2)-c2cc(ccc2F)Oc2c(F)cc3[nH]ccc3c2CCNC(=O)OC1 (centres unmarked) [Compound 87, 3-[3-(23,29-Difluoro-6,9-dimethyl-12-oxo-11,25-dioxa-3,13,20,31-tetrazapentacyclo[24.3.1.12,5.016,24.017,21]hentriaconta-1(30),2,4,16(24),17(21),18,22,26,28-nonaen-6-yl)phenyl]propanoic acid]	C (a value greater than 10 °C and less than or equal to 25 °C is marked “C”)	B (a value between 3 and 6 is marked “B”)
CC1(C)CCCCC(C)(c2cccc(CCC(=O)O)c2)c2cnc([nH]2)-c2cc(ccc2F)Oc2c(F)cc3[nH]ccc3c2COC(=O)N1 (centres unmarked) [Compound 88, 3-[3-(23,29-Difluoro-6,11,11-trimethyl-13-oxo-14,25-dioxa-3,12,20,31-tetrazapentacyclo[24.3.1.12,5.016,24.017,21]hentriaconta-1(30),2,4,16,18,21,23,26,28-nonaen-6-yl)phenyl]propanoic acid]	C (a value greater than 10 °C and less than or equal to 25 °C is marked “C”)	B (a value between 3 and 6 is marked “B”)
CC1(C)CCCC(C)(c2cccc(CCC(=O)O)c2)c2cnc([nH]2)-c2cc(ccc2F)Oc2c(F)cc3[nH]ccc3c2CNC(=O)OC1 (centres unmarked) [Compound 89, 3-[3-(23,29-Difluoro-6,10,10-trimethyl-13-oxo-12,25-dioxa-3,14,20,31-tetrazapentacyclo[24.3.1.12,5.016,24.017,21]hentriaconta-1(30),2,4,16,18,21,23,26,28-nonaen-6-yl)phenyl]propanoic acid]	C (a value greater than 10 °C and less than or equal to 25 °C is marked “C”)	B (a value between 3 and 6 is marked “B”)
CC1(C)CCCC(C)(c2cccc(CCC(=O)O)c2)c2nnc([nH]2)-c2cc(ccc2F)Oc2c(F)cc3[nH]ccc3c2COC(=O)NC1 (centres unmarked) [Compound 90, 3-[3-(23,29-Difluoro-6,10,10-trimethyl-13-oxo-14,25-dioxa-3,4,12,20,31-pentazapentacyclo[24.3.1.12,5.016,24.017,21]hentriaconta-1(30),2,4,16(24),17(21),18,22,26,28-nonaen-6-yl)phenyl]propanoic acid]	C (a value greater than 10 °C and less than or equal to 25 °C is marked “C”)	B (a value between 3 and 6 is marked “B”)
CC1(C)CCCC(C)(c2ccccc2)c2nnc([nH]2)-c2cc(ccc2F)Oc2c(F)cc3[nH]ccc3c2COC(=O)NC1 (centres unmarked) [Compound 91, 23,29-Difluoro-6,10,10-trimethyl-6-phenyl-14,25-dioxa-3,4,12,20,31-pentazapentacyclo[24.3.1.12,5.016,24.017,21]hentriaconta-1(30),2,4,16(24),17(21),18,22,26,28-nonaen-13-one]	B (a value above 5 °C and less than or equal to 10 °C is marked “B”)	A (a TECC value less than 3 is marked “A”)
CC1(C)CCC(C)(c2cccc(CCC(=O)O)c2)c2cnc([nH]2)-c2cc(ccc2F)Oc2c(F)cc3[nH]ccc3c2CCOC(=O)NC1 (centres unmarked) [Compound 92, 3-[3-(23,29-Difluoro-6,9,9-trimethyl-12-oxo-13,25-dioxa-3,11,20,31-tetrazapentacyclo[24.3.1.12,5.016,24.017,21]hentriaconta-1(30),2,4,16(24),17(21),18,22,26,28-nonaen-6-yl)phenyl]propanoic acid]	C (a value greater than 10 °C and less than or equal to 25 °C is marked “C”)	C (a value between 6 and 20 is marked “C”)
CC1(C)CCCCC(C)(c2ccccc2)c2cnc([nH]2)-c2cc(ccc2F)Oc2c(F)cc3[nH]ccc3c2COC(=O)N1 (centres unmarked) [Compound 94, 23,29-Difluoro-6,11,11-trimethyl-6-phenyl-14,25-dioxa-3,12,20,31-tetrazapentacyclo[24.3.1.12,5.016,24.017,21]hentriaconta-1(30),2,4,16,18,21,23,26,28-nonaen-13-one]	B (a value above 5 °C and less than or equal to 10 °C is marked “B”)	A (a TECC value less than 3 is marked “A”)
Cn1nc2nc1-c1cc(ccc1F)Oc1c(F)cc3[nH]ccc3c1COC(=O)NC(C)(C)CCCCC2(C)c1ccccc1 (centres unmarked) [Compound 102, 23,29-difluoro-3,6,11,11-tetramethyl-6-phenyl-14,25-dioxa-3,4,12,20,31-pentazapentacyclo[24.3.1.12,5.016,24.017,21]hentriaconta-1(30),2(31),4,16,18,21,23,26,28-nonaen-13-one]	B (a value above 5 °C and less than or equal to 10 °C is marked “B”)	B (a value between 3 and 6 is marked “B”)
CC(Cc1cccc(C2(C)CCCCC(C)(C)N(C)C(=O)OCc3c(c(F)cc4[nH]ccc34)Oc3ccc(F)c(c3)-c3nc2nn3C)c1)C(=O)O (centres unmarked) [Compound 103, 3-[3-(23,29-difluoro-3,6,11,11,12-pentamethyl-13-oxo-14,25-dioxa-3,4,12,20,31-pentazapentacyclo[24.3.1.12,5.016,24.017,21]hentriaconta-1(30),2(31),4,16,18,21,23,26,28-nonaen-6-yl)phenyl]-2-methyl-propanoic acid]	C (a value greater than 10 °C and less than or equal to 25 °C is marked “C”)	A (a TECC value less than 3 is marked “A”)
CC1(c2cccc(CCC(=O)O)c2)CCCC(O)CNC(=O)CCc2c(c(F)cc3[nH]ccc23)Oc2ccc(F)c(c2)-c2ncc1[nH]2 (centres unmarked) [Compound 106, 3-[3-(23,29-Difluoro-10-hydroxy-6-methyl-13-oxo-25-oxa-3,12,20,31-tetrazapentacyclo[24.3.1.12,5.016,24.017,21]hentriaconta-1(30),2,4,16,18,21,23,26,28-nonaen-6-yl)phenyl]propanoic acid]	C (a value greater than 10 °C and less than or equal to 25 °C is marked “C”)	B (a value between 3 and 6 is marked “B”)
CC1(c2cccc(CCC(=O)O)c2)CCCC(=O)CNC(=O)CCc2c(c(F)cc3[nH]ccc23)Oc2ccc(F)c(c2)-c2ncc1[nH]2 (centres unmarked) [Compound 107, 3-[3-(23,29-Difluoro-6-methyl-10,13-dioxo-25-oxa-3,12,20,31-tetrazapentacyclo[24.3.1.12,5.016,24.017,21]hentriaconta-1(30),2,4,16,18,21,23,26,28-nonaen-6-yl)phenyl]propanoic acid]	C (a value greater than 10 °C and less than or equal to 25 °C is marked “C”)	B (a value between 3 and 6 is marked “B”)
CC1(c2cccc(CCC(=O)O)c2)CCCCCC(O)CNC(=O)Cc2c(c(F)cc3[nH]ccc23)Oc2ccc(F)c(c2)-c2ncc1[nH]2 (centres unmarked) [Compound 108, 3-[3-(24,30-Difluoro-12-hydroxy-6-methyl-15-oxo-26-oxa-3,14,21,32-tetrazapentacyclo[25.3.1.12,5.017,25.018,22]dotriaconta-1(31),2,4,17,19,22,24,27,29-nonaen-6-yl)phenyl]propanoic acid]	C (a value greater than 10 °C and less than or equal to 25 °C is marked “C”)	A (a TECC value less than 3 is marked “A”)
CC1(c2cccc(CCC(=O)O)c2)CCCCCC(=O)CNC(=O)Cc2c(c(F)cc3[nH]ccc23)Oc2ccc(F)c(c2)-c2ncc1[nH]2 (centres unmarked) [Compound 109, 3-[3-(24,30-Difluoro-6-methyl-12,15-dioxo-26-oxa-3,14,21,32-tetrazapentacyclo[25.3.1.12,5.017,25.018,22]dotriaconta-1(31),2,4,17,19,22,24,27,29-nonaen-6-yl)phenyl]propanoic acid]	C (a value greater than 10 °C and less than or equal to 25 °C is marked “C”)	B (a value between 3 and 6 is marked “B”)
